According to ChEMBL document CHEMBL1148557, “Identification and initial evaluation of 4-N-aryl-[1,4]diazepane ureas as potent CXCR3 antagonists” (Bioorg Med Chem Lett, 2006):

Tests used:
[1] = biological target: T1, C-C chemokine receptor type 1 (Homo sapiens) (UniProt P32246); assay: Inhibitory activity against CCR1 receptor by radioligand binding assay at 10 uM
T1 sequence (whole entry): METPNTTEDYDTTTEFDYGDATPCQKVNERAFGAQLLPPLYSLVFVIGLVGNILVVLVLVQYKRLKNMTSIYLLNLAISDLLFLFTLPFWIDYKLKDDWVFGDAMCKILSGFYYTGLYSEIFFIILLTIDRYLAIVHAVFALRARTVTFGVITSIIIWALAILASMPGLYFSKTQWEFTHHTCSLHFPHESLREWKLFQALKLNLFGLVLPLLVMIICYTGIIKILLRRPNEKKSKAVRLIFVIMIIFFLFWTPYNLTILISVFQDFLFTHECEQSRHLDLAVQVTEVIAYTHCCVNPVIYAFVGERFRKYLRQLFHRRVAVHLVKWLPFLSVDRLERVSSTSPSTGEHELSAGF

[2] = biological target: C-C chemokine receptor type 2 (Homo sapiens) (UniProt P41597); assay: Inhibitory activity against CCR2B receptor by radioligand binding assay at 10 uM
C-C chemokine receptor type 2 (Homo sapiens), sequence (P41597 whole entry, looked up): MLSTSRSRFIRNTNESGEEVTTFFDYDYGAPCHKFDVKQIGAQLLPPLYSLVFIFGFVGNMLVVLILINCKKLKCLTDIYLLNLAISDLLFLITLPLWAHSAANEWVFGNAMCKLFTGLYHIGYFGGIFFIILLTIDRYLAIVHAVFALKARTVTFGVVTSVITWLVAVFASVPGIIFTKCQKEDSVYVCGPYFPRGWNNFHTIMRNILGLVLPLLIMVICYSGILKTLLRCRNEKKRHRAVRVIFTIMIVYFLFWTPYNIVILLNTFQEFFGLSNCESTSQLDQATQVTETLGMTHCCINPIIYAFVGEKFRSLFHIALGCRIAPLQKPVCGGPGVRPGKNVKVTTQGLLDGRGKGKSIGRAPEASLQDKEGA

[3] = biological target: T2, C-C chemokine receptor type 4 (Homo sapiens) (UniProt P51679); assay: Inhibitory activity against CCR4 receptor by radioligand binding assay at 10 uM
T2 sequence (whole entry): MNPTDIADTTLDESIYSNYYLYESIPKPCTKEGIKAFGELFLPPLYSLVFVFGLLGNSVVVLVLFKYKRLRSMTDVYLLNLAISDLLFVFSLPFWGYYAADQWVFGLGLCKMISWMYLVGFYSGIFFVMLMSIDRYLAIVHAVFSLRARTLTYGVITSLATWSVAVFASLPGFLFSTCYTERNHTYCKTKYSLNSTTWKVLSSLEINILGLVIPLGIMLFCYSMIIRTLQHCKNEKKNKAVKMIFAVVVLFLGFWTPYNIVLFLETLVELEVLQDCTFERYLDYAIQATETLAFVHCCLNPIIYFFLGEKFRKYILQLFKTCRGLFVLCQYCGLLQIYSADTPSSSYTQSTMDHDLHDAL

[4] = biological target: T3, C-X-C chemokine receptor type 1 (Homo sapiens) (UniProt P25024); assay: Inhibitory activity against CXCR1(IL-8A) receptor by radioligand binding assay at 10 uM
T3 sequence (whole entry): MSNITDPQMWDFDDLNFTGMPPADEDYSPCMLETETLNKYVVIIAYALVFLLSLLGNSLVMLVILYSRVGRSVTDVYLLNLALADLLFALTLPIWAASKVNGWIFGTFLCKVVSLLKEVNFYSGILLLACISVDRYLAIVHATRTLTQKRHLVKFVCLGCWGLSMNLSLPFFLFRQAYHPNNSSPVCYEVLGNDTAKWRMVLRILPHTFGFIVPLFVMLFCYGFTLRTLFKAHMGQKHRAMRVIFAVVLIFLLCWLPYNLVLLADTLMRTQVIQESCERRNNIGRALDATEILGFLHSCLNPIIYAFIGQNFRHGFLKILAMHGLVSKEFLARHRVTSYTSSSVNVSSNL

[5] = biological target: D(2) dopamine receptor (Homo sapiens) (UniProt P14416); assay: Inhibitory activity against D2S receptor by radioligand binding assay at 10 uM
D(2) dopamine receptor (Homo sapiens), sequence (P14416 whole entry): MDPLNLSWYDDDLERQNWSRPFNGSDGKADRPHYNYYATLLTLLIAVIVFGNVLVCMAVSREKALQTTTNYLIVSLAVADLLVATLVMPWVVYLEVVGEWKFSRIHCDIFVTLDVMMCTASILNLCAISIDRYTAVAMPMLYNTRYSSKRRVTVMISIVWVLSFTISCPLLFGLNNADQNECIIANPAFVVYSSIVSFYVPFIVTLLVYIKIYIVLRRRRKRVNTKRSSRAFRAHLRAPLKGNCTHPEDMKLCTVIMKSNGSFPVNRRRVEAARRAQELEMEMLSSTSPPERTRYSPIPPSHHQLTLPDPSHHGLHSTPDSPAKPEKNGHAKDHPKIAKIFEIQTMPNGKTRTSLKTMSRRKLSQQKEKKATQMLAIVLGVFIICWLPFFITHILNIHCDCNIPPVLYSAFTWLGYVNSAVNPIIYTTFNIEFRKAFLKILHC

[6] = biological target: D(3) dopamine receptor (Homo sapiens) (UniProt P35462); assay: Inhibitory activity against D3 receptor by radioligand binding assay at 10 uM
D(3) dopamine receptor (Homo sapiens), sequence (P35462 whole entry): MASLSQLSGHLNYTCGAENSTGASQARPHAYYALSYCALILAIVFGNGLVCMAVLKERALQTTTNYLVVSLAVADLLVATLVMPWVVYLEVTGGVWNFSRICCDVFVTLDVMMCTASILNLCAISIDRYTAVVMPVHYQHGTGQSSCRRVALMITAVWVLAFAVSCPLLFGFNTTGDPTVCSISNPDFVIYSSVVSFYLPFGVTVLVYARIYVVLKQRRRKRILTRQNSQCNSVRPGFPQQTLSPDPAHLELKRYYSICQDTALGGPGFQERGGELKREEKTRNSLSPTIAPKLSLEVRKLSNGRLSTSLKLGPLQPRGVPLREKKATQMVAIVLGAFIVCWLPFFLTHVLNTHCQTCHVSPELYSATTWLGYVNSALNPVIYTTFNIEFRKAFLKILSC

[7] = biological target: T4, Muscarinic acetylcholine receptor M1 (Homo sapiens) (UniProt P11229); assay: Inhibitory activity against M1 receptor by radioligand binding assay at 10 uM
T4 sequence (whole entry): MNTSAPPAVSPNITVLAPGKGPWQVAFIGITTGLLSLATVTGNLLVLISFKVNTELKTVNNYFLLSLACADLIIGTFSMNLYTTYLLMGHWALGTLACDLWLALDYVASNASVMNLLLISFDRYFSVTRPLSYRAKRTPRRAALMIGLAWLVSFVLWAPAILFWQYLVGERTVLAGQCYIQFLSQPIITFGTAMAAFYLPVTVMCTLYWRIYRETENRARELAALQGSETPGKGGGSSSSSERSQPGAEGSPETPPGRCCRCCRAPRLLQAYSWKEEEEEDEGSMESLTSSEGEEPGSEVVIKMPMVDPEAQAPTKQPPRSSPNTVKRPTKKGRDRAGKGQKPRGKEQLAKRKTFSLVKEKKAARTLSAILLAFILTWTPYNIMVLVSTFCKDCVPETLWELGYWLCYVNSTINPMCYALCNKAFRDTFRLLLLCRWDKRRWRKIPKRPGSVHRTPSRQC

[8] = biological target: T5, Muscarinic acetylcholine receptor M2 (Homo sapiens) (UniProt P08172); assay: Inhibitory activity against M2 receptor by radioligand binding assay at 10 uM
T5 sequence (whole entry): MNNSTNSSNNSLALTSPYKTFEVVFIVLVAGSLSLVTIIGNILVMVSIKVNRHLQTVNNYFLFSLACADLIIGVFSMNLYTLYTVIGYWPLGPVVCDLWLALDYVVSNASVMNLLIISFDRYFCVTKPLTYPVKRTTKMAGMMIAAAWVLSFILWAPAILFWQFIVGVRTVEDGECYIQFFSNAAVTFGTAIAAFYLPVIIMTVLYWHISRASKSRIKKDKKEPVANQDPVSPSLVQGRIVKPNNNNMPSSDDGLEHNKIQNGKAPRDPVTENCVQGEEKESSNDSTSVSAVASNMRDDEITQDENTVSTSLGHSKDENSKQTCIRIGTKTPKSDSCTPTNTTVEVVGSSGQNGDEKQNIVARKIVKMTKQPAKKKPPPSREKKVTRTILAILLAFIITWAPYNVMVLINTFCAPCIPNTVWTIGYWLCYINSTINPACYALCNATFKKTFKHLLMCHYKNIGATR

- inhibition [1]: < 50%
- inhibition [2]: < 50%
- inhibition [3]: < 50%
- inhibition [4]: < 50%
- inhibition [5]: < 50%
- inhibition [6]: < 50%
- inhibition [7]: < 50%
- inhibition [8]: < 50%
Structure (SMILES): CCNC(=O)N1CCCN(c2ccc(C(=O)NCCc3ccc(Cl)cc3Cl)cc2NC(=O)c2cccc(Cl)c2)CC1
